Test results reported in the supplement of paper PMC10307832.

Assays:
Assay in all cases: relative viability (nuclei count vs DMSO), 5 days (fraction); higher = more cells survive
[1] = compound: COC1=C(C=C(C=C1)C2=CC3=NC=CN3C(=N2)NC4=C(C=CC=N4)C(=O)N)OC [BAY61-3606] + Cc1nc(NC(=O)N2CCC[C@H]2C(N)=O)sc1-c1ccnc(C(C)(C)C(F)(F)F)c1 [Alpelisib] (partner 2 µM)
Procedure, shortened: (§1)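 Cells from lung cancer lines were seeded into 1536-well plates and, one day later, dosed by pin tool. Treatments were either a single drug or a fixed dose of an anchor drug with five library-drug doses (not always all listed) in √10 steps. After 5 days, nuclei were stained in a one-step fixation (final 0.05% Triton X-100, 1% formaldehyde, 1 ug/ml Hoechst) and counted on 4× images, and relative viability is the treated-to-vehicle nuclei ratio, as the median of duplicate plates.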

[2] = compound: COC1=C(C=C(C=C1)C2=CC3=NC=CN3C(=N2)NC4=C(C=CC=N4)C(=O)N)OC [BAY61-3606]
Procedure, shortened: (§2)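 Hoechst staining, done together with fixation and permeabilisation, marked nuclei for 4× imaging and MetaXpress counting. This followed 5 days without medium change after lung cancer cell lines, kept overnight at 37 °C in 1536-well plates, were pinned with five library-drug doses (not always all listed) spaced by √10 on vehicle-anchored plates. Viability is the ratio of treated-well to vehicle-well nuclei, expressed as a median across plates. Plates passed only at control CV below 25% with at least one doubling.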

[3] = compound: COc1cccc2c1C(=O)c1c(O)c3c(c(O)c1C2=O)C[C@@](O)(C(=O)CO)C[C@@H]3O[C@H]1C[C@H](N)[C@H](O)[C@H](C)O1 [Doxorubicin]
Procedure, shortened: as §2

[4] = compound: COc1cccc2c1C(=O)c1c(O)c3c(c(O)c1C2=O)C[C@@](O)(C(=O)CO)C[C@@H]3O[C@H]1C[C@H](N)[C@H](O)[C@H](C)O1 [Doxorubicin] + Nc1nc2[nH]cc(CCc3ccc(C(=O)N[C@@H](CCC(=O)O)C(=O)O)cc3)c2c(=O)[nH]1 [Pemetrexed] (partner 0.2 µM)
Procedure, shortened: as §1

Cell Line	relative viability ([1]; first compound 0.02 µM)	relative viability ([1]; first compound 0.06325 µM)	relative viability ([1]; first compound 0.2 µM)	relative viability ([1]; first compound 0.6325 µM)	relative viability ([1]; first compound 2 µM)	relative viability ([2]; 0.02 µM)	relative viability ([2]; 0.06325 µM)	relative viability ([2]; 0.2 µM)	relative viability ([2]; 0.6325 µM)	relative viability ([2]; 2 µM)	relative viability ([3]; 0.001 µM)	relative viability ([3]; 0.003162 µM)	relative viability ([3]; 0.01 µM)	relative viability ([3]; 0.03162 µM)	relative viability ([3]; 0.1 µM)	relative viability ([4]; first compound 0.001 µM)	relative viability ([4]; first compound 0.003162 µM)	relative viability ([4]; first compound 0.01 µM)	relative viability ([4]; first compound 0.03162 µM)	relative viability ([4]; first compound 0.1 µM)
NCI-H727	0.611	0.615	0.609	0.721	0.488	1	0.923	0.983	1.01	0.901	0.874	0.971	0.76	0.928	0.812					
A-427	1.11	1.13	1.1	1.07	1.06	1.08	1.01	0.963	1.03	0.892	0.969	1.03	0.936	0.81	0.757	1.08	1.06	0.929	0.746	0.429
EMC-BAC-2	0.817	0.837	0.75	0.85	0.802	1.04	1	0.921	0.988	0.942	1.34	0.844	0.748	0.469	0.326	0.491	0.48	0.444	0.409	0.369
NCI-H647	1.02	1.36	0.922	1.03	0.534	1.15	0.897	0.946	0.979	0.616	0.953	1.07	0.987	0.495	0.201	0.211	0.168	0.196	0.127	0.163
LCLC-97TM1	0.232		0.244	0.231	0.238	1.06	1.07	1	0.892	1.01	0.909	1.11	0.909	0.822	0.749	0.188	0.179	0.179	0.17	0.181
HOP-62	0.901		0.874	0.947	0.64	0.969	1	0.954	0.956	0.964	0.937	1.04	1	1.04	1.02	0.356	0.34	0.302	0.25	0.349
NCI-H1437	0.987	0.988	0.935	1.06	0.903	1.03	1.03	0.978	1	0.941	0.991	1.01	0.894	0.718	0.409	0.32	0.297	0.303	0.315	0.329
NCI-H1755	0.946	1.01	0.908	0.903	0.77	1.05	1	0.995	1.05	0.988	0.999	0.979	1	1.03	1.02	0.419	0.408	0.419	0.492	0.467
